According to paper PMC4883822, “High-Efficiency Capture of Drug Resistant-Influenza Virus by Live Imaging of Sialidase Activity” (PLoS ONE, 2016):

Target: T1, sialidase (neuraminidase, NA) of oseltamivir-sensitive 838 (Influenza A virus (A/Lima/070674913/2013(H1N1)), UniProt W8DXJ8)
T1 construct: full-length viral NA on whole virus grown in MDCK cells (or on infected MDCK cells); natural 275H
Test: live-focus fluorescence imaging of sialidase activity, qualitative
Format: cell-based
Conditions: substrate BTP3-Neu5Ac, 37 °C, 1 h, infected MDCK cells

CCC(CC)[C@H](NC(C)=O)[C@@H]1[C@H](O)[C@@H](C(=O)O)C[C@H]1N=C(N)N [peramivir]
inhibition at 10-1000 nM (qualitative): adding BTP3-Neu5Ac with clinical use-approved NAIs (oseltamivir, zanamivir, peramivir, and laninamivir)
